# Results from patent EP4786474A1, “CRYSTALLINE FORM OF QUINAZOLINE DERIVATIVE AND PREPARATION METHOD THEREFOR” (Jiangsu Hengrui Pharmaceuticals Co., Ltd., priority 2023, dated 2025).
# Experiments:
# [1] = tested on: HER2 A775_G776insYVMA mutant Ba/F3 cells; assay: Ba/F3 cell proliferation assay (Celltiter-Glo); type: cell-based; settings: 72 h incubation
# Description: (§1) EGFR wild-type Ba/F3 cells (Cobioer, Cat. No. CBP73110) in the logarithmic growth phase were seeded into a 96-well plate at 2.5 × 10^3 cells/100 µL in a growth medium, and HER2 wild-type Ba/F3 cells (Cobioer, Cat. No. CBP73110) or HER2 A775_G776insYVMA mutant Ba/F3 cells (Cobioer, Cat. No. CBP73184) in the logarithmic growth phase were seeded into a 96-well plate at 5 × 10^3 cells/100 µL in a growth medium. The plates were placed in a cell incubator at 37 °C overnight. The next day, the compound diluted in a 3-fold gradient with a medium was added to the plates at 100 µL/well. All treatments were performed in triplicate. The plates were incubated in the cell incubator at 37 °C for another 72 h. Celltiter-Glo Luminescent cell viability assay was performed.
# (§2) The cell proliferation rate corresponding to each well was calculated according to the following formula: proliferation% = (test compound well G3 - G0 average value)/(DMSO control well G3 average value - G0 average value) × 100. According to the proliferation rate and concentration corresponding to each gradient concentration well, a gradient curve for cell proliferation was fitted using Prism Graphpad software, and the GI50 (GI50 is defined as the compound concentration corresponding to a cell proliferation inhibition rate of 50%) of the compound was calculated.
# [2] = tested on: HER2 wild-type Ba/F3 cells; assay: Ba/F3 cell proliferation assay (Celltiter-Glo); type: cell-based; settings: 72 h incubation
# Description: as §1, §2
# [3] = tested on: EGFR wild-type Ba/F3 cells; assay: Ba/F3 cell proliferation assay (Celltiter-Glo); type: cell-based; settings: 72 h incubation
# Description: as §1, §2
# [4] = DVS (dynamic vapor sorption) hygroscopicity testing; type: physicochemical
# Source text: According to the description of hygroscopicity characteristics and the definition of hygroscopic weight gain in "General Rule 9103, Guidelines for Hygroscopicity Trials for Pharmaceuticals" in the Chinese Pharmacopoeia, Volume IV, 2015 Edition: • deliquescent: sufficient water is absorbed to form a liquid; • extremely hygroscopic: the hygroscopic weight gain is not less than 15%; • hygroscopic: the hygroscopic weight gain is less than 15% but not less than 2%; • slightly hygroscopic: the hygroscopic weight gain is less than 2% but not less than 0.2%; • nonhygroscopic or practically nonhygroscopic: the hygroscopic weight gain is less than 0.2%.
# DVS refers to dynamic vapor sorption: The analysis was performed using SMS DVS Advantage; at 25 °C, the humidity was changed as follows: 50%-95%-0%-95%-50%, in steps of 10% (5% for the last step) (specific humidity ranges are shown in corresponding patterns, and those listed here were used in most cases); the criterion was dm/dt being not greater than 0.002%.
# [5] = Influencing factor stability study; type: physicochemical
# Description: Samples of the crystal forms D, E, and H were spread in open containers and left to stand under light exposure (4500 Lux), high temperature (40 °C and 60 °C), and high humidity (RH 75% and RH 92.5%) conditions for 1 month to investigate their stability.
# [6] = Long-term/accelerated stability; type: physicochemical
# Description: Samples of the crystal forms D, E, and H were left to stand under 25 °C/60% RH and 40 °C/75% RH conditions to investigate their stability: Table 30.
smiles,measurement,setting,value
"Cc1cc(Nc2ncnc3ccc(NC4=NC(C)(C)CO4)cc23)ccc1Oc1ccn2ncnc2c1 [Tucatinib, reference compound]",HER2 A775_G776 ins YVMA/ BaF3 Imax %,[1],100%
"C=CC(=O)N1[C@@H]2CC[C@H]1C[C@@H](Oc1ccc3ncnc(Nc4ccc(Oc5ccn6ncnc6c5)c(C)c4F)c3c1)C2 [Example 1, 1-(endo-3-((4-((4-([1,2,4]Triazolo[1,5-a]pyridin-7-yloxy)-2-fluoro-3-methylphenyl)amino)quinazolin-6-yl)oxy)-8-azabicyclo[3.2.1]octan-8-yl)prop-2-en-1-one]",HER2 WT/ BaF3 Imax %,[2],100%
same,HER2 A775_G776 ins YVMA/ BaF3 Imax %,[1],100%
same,EGFR WT/ BaF3 Imax %,[3],100%
"C=CC(=O)N1[C@@H]2CC[C@H]1C[C@@H](Oc1ccc3ncnc(Nc4ccc(Oc5ccn6ncnc6c5)c(C)c4F)c3c1)C2 [Crystal form H, 1-(endo-3-((4-((4-([1,2,4]Triazolo[1,5-a]pyridin-7-yloxy)-2-fluoro-3-methylphenyl)amino)quinazolin-6-yl)oxy)-8-azabicyclo[3.2.1]octan-8-yl)prop-2-en-1-one]",hygroscopic weight gain,"[4]; accelerated experimental conditions, 70% RH",about 0.12%
same,hygroscopic weight gain,"[4]; extreme conditions, 90% RH",about 0.22%
same,hygroscopic weight gain,"[4]; normal storage conditions, 25 °C and 60% RH",about 0.09%
same,Color and appearance,"[5]; 40 °C, 1 month",White powder
same,Crystal form,"[5]; 40 °C, 1 month",No change
same,Purity (%),"[5]; 40 °C, 1 month",99.4%
same,Color and appearance,"[5]; 40 °C, 7 days",White powder
same,Crystal form,"[5]; 40 °C, 7 days",No change
same,Color and appearance,"[5]; 40 °C, 14 days",White powder
same,Crystal form,"[5]; 40 °C, 14 days",No change
same,Color and appearance,"[5]; 60 °C, 1 month",White powder
same,Crystal form,"[5]; 60 °C, 1 month",No change
same,Purity (%),"[5]; 60 °C, 1 month",99.4%
same,Color and appearance,"[5]; 60 °C, 7 days",White powder
same,Crystal form,"[5]; 60 °C, 7 days",No change
same,Color and appearance,"[5]; 60 °C, 14 days",White powder
same,Crystal form,"[5]; 60 °C, 14 days",No change
same,Color and appearance,"[5]; 75% RH, 1 month",White powder
same,Crystal form,"[5]; 75% RH, 1 month",No change
same,Color and appearance,"[5]; 75% RH, 7 days",White powder
same,Crystal form,"[5]; 75% RH, 7 days",No change
same,Color and appearance,"[5]; 75% RH, 14 days",White powder
same,Crystal form,"[5]; 75% RH, 14 days",No change
same,Color and appearance,"[5]; 92.5% RH, 1 month",White powder
same,Crystal form,"[5]; 92.5% RH, 1 month",No change
same,Color and appearance,"[5]; 92.5% RH, 7 days",White powder
same,Crystal form,"[5]; 92.5% RH, 7 days",No change
same,Color and appearance,"[5]; 92.5% RH, 14 days",White powder
same,Crystal form,"[5]; 92.5% RH, 14 days",No change
same,Color and appearance,"[5]; 4500 Lux, 1 month",White powder
same,Crystal form,"[5]; 4500 Lux, 1 month",No change
same,Color and appearance,"[5]; 4500 Lux, 7 days",White powder
same,Crystal form,"[5]; 4500 Lux, 7 days",No change
same,Color and appearance,"[5]; 4500 Lux, 14 days",White powder
same,Crystal form,"[5]; 4500 Lux, 14 days",No change
same,Color and appearance,"[5]; Initial, 0",White powder
same,Crystal form,"[5]; Initial, 0",Crystal form H
same,Purity (%),"[5]; Initial, 0",99.8%
same,physical and chemical stability,"[5]; light exposure (4500 Lux), high temperature (40 °C and 60 °C), high humidity (RH 75% and RH 92.5%), 30 days","Conclusion: Standing under light exposure (4500 Lux), high temperature (40 °C and 60 °C), and high humidity (RH 75% and RH 92.5%) conditions for 30 days, the crystal form H exhibited good physical and chemical stability."
same,Color and appearance,"[6]; 25 °C/60% RH, 1 month",White powder
same,Crystal form,"[6]; 25 °C/60% RH, 1 month",No change
same,Color and appearance,"[6]; 25 °C/60% RH, 2 months",White powder
same,Crystal form,"[6]; 25 °C/60% RH, 2 months",No change
same,Color and appearance,"[6]; 25 °C/60% RH, 3 months",White powder
same,Crystal form,"[6]; 25 °C/60% RH, 3 months",No change
same,Color and appearance,"[6]; 25 °C/60% RH, 6 months",White powder
same,Crystal form,"[6]; 25 °C/60% RH, 6 months",No change
same,Color and appearance,"[6]; 25 °C/60% RH, 14 days",White powder
same,Crystal form,"[6]; 25 °C/60% RH, 14 days",No change
same,Color and appearance,"[6]; 40 °C/75% RH, 1 month",White powder
same,Crystal form,"[6]; 40 °C/75% RH, 1 month",No change
same,Color and appearance,"[6]; 40 °C/75% RH, 2 months",White powder
same,Crystal form,"[6]; 40 °C/75% RH, 2 months",No change
same,Color and appearance,"[6]; 40 °C/75% RH, 3 months",White powder
same,Crystal form,"[6]; 40 °C/75% RH, 3 months",No change
same,Color and appearance,"[6]; 40 °C/75% RH, 6 months",White powder
same,Crystal form,"[6]; 40 °C/75% RH, 6 months",No change
same,Color and appearance,"[6]; 40 °C/75% RH, 14 days",White powder
same,Crystal form,"[6]; 40 °C/75% RH, 14 days",No change
same,Color and appearance,"[6]; Initial, 0",White powder
same,Crystal form,"[6]; Initial, 0",Crystal form H
same,Purity (%),"[6]; Initial, 0",99.8%
same,physical and chemical stability,[6]; long-term/accelerated conditions,"Conclusion: Under long-term/accelerated conditions, the crystal form H exhibited good physical and chemical stability."
